This is an account of results in ChEMBL document CHEMBL3351492, “Novel 3,6-bis(imidazolidine)acridines as effective photosensitizers for photodynamic therapy” (Bioorg Med Chem, 2014).

For data set [1], the system named is A2780. The experiment in a line: Drug uptake in human A2780 cell lysosome assessed per focused cells at 3 uM irradiated for 1 hr followed by incubated with LysoTracker. The class given is ADME, cell-based. To be noted: a2780, 1 h.
Data set [2] deals with A2780. The experiment in a line: Drug uptake in human A2780 cell nucleus at 3 uM irradiated for 1 hr followed by incubated with 0.1 uM SytoRed for 35 mins. The class given is ADME, cell-based. To be noted: a2780, 1 h.
Data set [3] deals with L1210. The experiment in a line: Cytotoxicity against mouse L1210 cells assessed as inhibition of cell viability for 48 hrs in 1.05 J/cm'2 UV-A irradiation by MTT assay. In kind it is functional, cell-based. To be noted: L1210, light or radiation study. (In general: Formazan colour is commonly taken as a measure of viable cells.)
Data set [4] relates to A2780. The experiment in a line: Drug uptake in human A2780 cell mitochondria assessed per focused cells at 0.5 uM irradiated for 1 hr followed by incubated with 0.1 uM MitoRed for 15 mins. In kind it is ADME, cell-based. Particulars: a2780, 1 h.
Data set [5] has as its system L1210. The experiment in a line: Cytotoxicity against mouse L1210 cells assessed as inhibition of cell viability for 72 hrs in 1.05 J/cm'2 UV-A irradiation by MTT assay. The class given is functional, cell-based. To be noted: L1210, light or radiation study.
Data set [6] relates to A2780. The experiment in a line: Induction of oxidative stress in human A2780 cells assessed as reactive oxygen species production at 0.5 uM for 1 hr in 1.05 J/cm'2 UV-A irradiation by DHE assay. In kind it is functional, cell-based.
In data set [7] the test system is A2780. The experiment in a line: Drug uptake in human A2780 cell mitochondria assessed per focused cells at 0.5 uM for 1 hr in dark by incubated with 0.1 uM MitoRed for 15 mins. In kind it is ADME, cell-based. Particulars: a2780, 1 h.
In data set [8] the test system is A2780. The experiment in a line: Cell cycle arrest in human A2780 cells assessed as cells at S phase at 1 uM for 1 hr in 1.05 J/cm'2 UV-A irradiation measured after 4 hrs by PI staining/flow cytometry. In kind it is functional. In general terms: Flow cytometry measures light scatter and fluorescence of single cells or particles in a stream.
Data set [9] deals with A2780. The experiment in a line: Induction of apoptosis in human A2780 cells assessed as blebbing of cell membrane at 1 uM for 1 hr in 1.05 J/cm'2 UV-A irradiation measured after 24 hrs by fluorescence microscopy. The class given is functional, cell-based.
Data set [10] deals with A2780. The experiment in a line: Cytotoxicity against human A2780 cells assessed as inhibition of cell viability for 72 hrs in dark by MTT assay. The class given is functional, cell-based. To be noted: A2780, 72 h.
The subject of data set [11] is A2780. The experiment in a line: Induction of apoptosis in human A2780 cells assessed as effect on cell morphology at 1 uM for 1 hr in dark measured after 4 hrs by fluorescence microscopy. In kind it is functional, cell-based.
Data set [12] concerns A2780. The experiment in a line: Genotoxicity in human A2780 cells assessed as DNA damage at 0.05 to 1 uM for 1 hr in 1.05 J/cm'2 UV-A irradiation measured after 12 hrs by comet assay. In kind it is toxicity, cell-based. To be noted: a2780, 1 h.
Data set [13] relates to A2780. The experiment in a line: Cytotoxicity against human A2780 cells assessed as inhibition of cell viability for 48 hrs in 1.05 J/cm'2 UV-A irradiation by MTT assay. Particulars: A2780, light or radiation study. In kind it is functional, cell-based.
The subject of data set [14] is A2780. The experiment in a line: Cell cycle arrest in human A2780 cells assessed as cells at sub G0 phase at 1 uM for 1 hr in 1.05 J/cm'2 UV-A irradiation measured after 4 hrs by PI staining/flow cytometry. In kind it is functional.
Data set [15] in a line: Cytotoxicity against mouse NIH/3T3 cells assessed as inhibition of cell viability for 48 hrs in dark by MTT assay. In kind it is cell-based. Particulars: NIH3T3, 48 h.
The subject of data set [16] is A2780. The experiment in a line: Cell cycle arrest in human A2780 cells assessed as cells at sub G0 phase at 1 uM after 4 hrs in dark by PI staining/flow cytometry. In kind it is functional.
Data set [17] in a line: Cytotoxicity against mouse NIH/3T3 cells assessed as inhibition of cell viability for 72 hrs in dark by MTT assay. In kind it is cell-based. To be noted: NIH3T3, 72 h.
For data set [18], the system named is A2780. The experiment in a line: Induction of apoptosis in human A2780 cells assessed as volume and condensation of DNA chromatin at 1 uM for 1 hr in 1.05 J/cm'2 UV-A irradiation measured after 4 hrs by fluorescence microscopy. In kind it is functional, cell-based.
Data set [19] relates to A2780. The experiment in a line: Cytotoxicity against human A2780 cells assessed as inhibition of cell viability for 48 hrs in dark by MTT assay. The class given is functional, cell-based. To be noted: A2780, 48 h.
Data set [20] has as its system A2780. The experiment in a line: Induction of apoptosis in human A2780 cells assessed as DNA ladder formation at 1 uM for 1 hr in 1.05 J/cm'2 UV-A irradiation measured after 4 hrs by agarose gel. In kind it is functional, cell-based.
Data set [21] can be described thus: Cytotoxicity against mouse NIH/3T3 cells assessed as inhibition of cell viability for 48 hrs in 1.05 J/cm'2 UV-A irradiation by MTT assay. The class given is cell-based. Particulars: NIH3T3, light or radiation study.
Data set [22] concerns A2780. The experiment in a line: Drug uptake in human A2780 cell nucleus at 0.5 uM irradiated for 1 hr followed by incubated with 0.1 uM SytoRed for 35 mins. To be noted: a2780, 1 h. In kind it is ADME, cell-based.
Data set [23] relates to A2780. The experiment in a line: Drug uptake in human A2780 cell mitochondria assessed per focused cells at 3 uM irradiated for 1 hr followed by incubated with 0.1 uM MitoRed for 15 mins. Particulars: a2780, 1 h. In kind it is ADME, cell-based.
Data set [24] concerns A2780. The experiment in a line: Cytotoxicity against human A2780 cells assessed as inhibition of cell viability for 72 hrs in 1.05 J/cm'2 UV-A irradiation by MTT assay. In kind it is functional, cell-based. To be noted: A2780, light or radiation study.
In data set [25] the test system is A2780. The experiment in a line: Drug uptake in human A2780 cell lysosome at 0.5 uM irradiated for 1 hr followed by incubated with LysoTracker relative to non-irradiated cells. The class given is ADME, cell-based. To be noted: a2780, 1 h.
Data set [26] is described as follows: Cytotoxicity against mouse NIH/3T3 cells assessed as inhibition of cell viability for 72 hrs in 1.05 J/cm'2 UV-A irradiation by MTT assay. The class given is cell-based. Particulars: NIH3T3, light or radiation study.
In data set [27] the test system is A2780. The experiment in a line: Induction of apoptosis in human A2780 cells assessed as DNA ladder formation at 1 uM after 4 hrs in dark by agarose gel. The class given is functional, cell-based.
The test system of data set [28] is A2780. The experiment in a line: Drug uptake in human A2780 cell autophagic vacoules at 0.5 uM irradiated for 1 hr followed by incubated with LysoTracker relative to non-irradiated cellsin presence of MDC. The class given is ADME, cell-based. Particulars: a2780, 1 h.

The source made the active and inactive calls. No cut-off for these calls is given here.

On to `CCCCCN1C(=O)CN/C1=N\c1ccc2cc3ccc(/N=C4\NCC(=O)N4CCCCC)cc3nc2c1.Cl`, for which the Drug uptake was 6% in the data set on A2780 [1]; “Not Active” in the data set on A2780 [2]; 2% with A2780 [4]; 7% in the data set on A2780 [7]; “Not Active” in the data set with A2780 [22]; 7% in the data set on A2780 [23]. Besides, the Drug uptake in the data set with A2780 [25] is reported as 24%; with A2780 [28] it was “Active”. Besides, the IC50 with L1210 [3] is 640 nM; in the data set with L1210 [5], 590 nM; with A2780 [10], 13800 nM; in the data set on A2780 [13], 1430 nM; in data set [15] it was > 50000 nM; in data set [17], > 50000 nM. For the same compound, the IC50 is 19500 nM with A2780 [19], > 30000 nM in data set [21], 1090 nM in the data set on A2780 [24] and 28400 nM in data set [26]. Also, the outcome in the data set with A2780 [6], in the data set on A2780 [9], with A2780 [18] and with A2780 [20] was Active. For the same compound, the Activity in the data set with A2780 [8] was 43%; in the data set on A2780 [12], “Non-toxic”; with A2780 [14], 7.69%; in the data set with A2780 [16], 1.42%. The outcome with A2780 [11] and in the data set on A2780 [27] was inactive.

For the compound `CCCCCCN1C(=O)CN/C1=N\c1ccc2cc3ccc(/N=C4\NCC(=O)N4CCCCCC)cc3nc2c1.Cl`, the IC50 came out at 770 nM in the data set on L1210 [3]; 640 nM with L1210 [5]; 9580 nM in the data set on A2780 [10]; 1580 nM in the data set with A2780 [13]; 15700 nM with A2780 [19]; 1260 nM in the data set with A2780 [24]. Besides, in the data set with A2780 [6], the result was Active. The Activity entry in the data set with A2780 [12] is “Non-toxic”.

As to `Nc1ccc2cc3ccc(N)cc3nc2c1`, the half-inhibitory concentration (IC50) with A2780 [10] is 180 nM; with A2780 [13], 330 nM; in the data set on A2780 [19], 480 nM; with A2780 [24], 100 nM.

One may read the IC50 as the concentration that inhibits the measured activity by half.
